In patent US20090099169A1, “Benzofuran Compounds As EP1 Receptor Antagonists” (GLAXO GROUP LIMITED, priority 2006, published 2009):
Counter-ions that a name gives are not always drawn.

Molecular target: T1, human EP1 receptor (Homo sapiens, UniProt P34995)
T1 sequence (P34995 1-402): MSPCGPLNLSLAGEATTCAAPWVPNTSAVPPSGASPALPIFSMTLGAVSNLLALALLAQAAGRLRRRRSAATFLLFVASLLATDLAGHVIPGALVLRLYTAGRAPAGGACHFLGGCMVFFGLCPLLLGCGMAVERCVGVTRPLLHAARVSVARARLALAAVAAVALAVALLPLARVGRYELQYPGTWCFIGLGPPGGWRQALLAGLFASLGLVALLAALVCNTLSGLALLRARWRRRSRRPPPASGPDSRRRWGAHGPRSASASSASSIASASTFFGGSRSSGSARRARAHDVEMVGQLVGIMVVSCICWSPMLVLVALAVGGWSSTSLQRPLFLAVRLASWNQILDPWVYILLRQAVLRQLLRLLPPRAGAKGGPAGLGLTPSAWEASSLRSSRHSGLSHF
Experiment: Binding assay for the human prostanoid EP1 receptor (radioligand competition)
Parameters: expressed in transfected cells; host or cells: CHO-K1 (membranes)
Conditions: CHO-K1 membranes; [3H]-PGE2 for Examples 1-17, 19, 33, 34, 60 and 61, 3-{2-[5-Bromo-2-(2,4-difluorobenzyloxy)-phenyl]-5-methyl-pyrrol-1-yl}-6-[3H3-methoxy]methoxy-benzoic acid for the remaining; averages of a number of experiments; read-out: pIC50 value (binding assay for the human prostanoid EP1 receptor) (converted)
Method in brief: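 Membranes from CHO-K1 cells stably expressing human EP1, in pH 6 MES buffer with 10 mM MgCl2. Competition with [3H]-PGE2 (3 nM final) for 30 min at 30 °C, or alternatively with a tritiated benzoic-acid ligand (0.2 nM final) for 45 min at 37 °C; filtration and scintillation counting, IC50 by non-linear fitting.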

IC50, ≤ 100 nM:
Cc1cc(C(=O)Nc2ccc(CN3CCC(O)CC3)cc2)nn1Cc1cc(Cl)cc2cc(C(C)C)oc12 [Example 16, 1-{[5-Chloro-2-(1-methylethyl)-1-benzofuran-7-yl]methyl}-N-{4-[(4-hydroxy-1-piperidinyl)methyl]phenyl}-5-methyl-1H-pyrazole-3-carboxamide hydrochloride]
CCNCc1ccc(NC(=O)c2cc(C)n(Cc3cc(Cl)cc4cc(C(C)C)oc34)n2)cc1 [Example 15, 1-{[5-Chloro-2-(1-methylethyl)-1-benzofuran-7-yl]methyl}-N-{4-[(ethylamino)methyl]phenyl}-5-methyl-1H-pyrazole-3-carboxamide hydrochloride]
CC(C)c1cc2cc(Cl)cc(Cc3ccc(C(=O)O)o3)c2o1 [Example 1, 5-{[5-Chloro-2-(1-methylethyl)-1-benzofuran-7-yl]methyl}-2-furancarboxylic Acid]
Cc1cc(C(=O)O)nn1Cc1cc(Cl)cc2cc(C(C)C)oc12 [Example 3, 1-{[5-Chloro-2-(1-methylethyl)-1-benzofuran-7-yl]methyl}-5-methyl-1H-pyrazole-3-carboxylic Acid]
Cc1cc(C(=O)NN2CCOCC2)nn1Cc1cc(Cl)cc2cc(C3CCCCC3)oc12 [Example 28, 1-[(5-Chloro-2-cyclohexyl-1-benzofuran-7-yl)methyl]-5-methyl-N-4-morpholinyl-1H-pyrazole-3-carboxamide]
Cc1cc(C(=O)Nc2ccc(CN3CC[C@@H](O)C3)cc2)nn1Cc1cc(Cl)cc2cc(C(C)C)oc12 [Example 17, 1-{[5-Chloro-2-(1-methylethyl)-1-benzofuran-7-yl]methyl}-N-(4-{[(3R)-3-hydroxy-1-pyrrolidinyl]methyl}phenyl)-5-methyl-1H-pyrazole-3-carboxamide hydrochloride]
